Like-named read-outs stand apart in the source and are kept apart here.
Experiments:
HPV precancers = conditions: self-administered by patients; published clinical trial [8]; cited from earlier work
HeLa cells [1] = assay: […]-GLO cell viability, drugs alone and in combination (Example 4); format: cell-based; conditions: Homo sapiens
Protocol: (§1) The IC50 values were calculated from the cell viability assays for each drug alone and in combination. […] Cells were then incubated for a 24-hour period to allow them to adhere to the wells. […] For the experiments involving artesunate and panobinostat, the concentrations used varied by cell type. […] The buffer/enzyme solution was mixed and applied to the cells according to the Promega protocol. Cells were then placed on the orbital shaker for 2 minutes and then placed in the luminometer for reading. To analyze the data, the background (from only the DMEM media) was subtracted from the luminescence of each well. […] All readings were normalized based upon the control values. […] Analyses were conducted using GraphPad Prism 9. The combination index and dose-reduction index values were calculated based using the summary of the data for all three cell types. […] Dose reduction values are the measure of how many folds the dose of each drug in a synergistic combination may be reduced compared with the doses of each drug alone. […] The values are shown in Table 4 for IC50 and in Table 5 for IC90. […] The methods of analysis are the same as those described above. […] A DMSO experimental stock was made in DMEM as a negative control. […] Analyses were conducted using GraphPad Prism 9. The combination index and dose-reduction index values were calculated based using the summary of the data for all three cell types. […] Dose reduction values are the measure of how many folds the dose of each drug in a synergistic combination may be reduced compared with the doses of each drug alone. […] The values are shown in Table 6 for IC50 and in Table 7 for IC90.

SiHa cells [2] = assay: as above; format: cell-based; conditions: Homo sapiens
Protocol: as §1

HeLa cells [3] = assay: […]-GLO cell viability, artesunate/panobinostat dose pairings, CompuSyn analysis (Example 1); format: cell-based; parameters: key: fraction surviving, normalized to average of untreated controls
Protocol: To test the combined effects of artesunate and panobinostat, HeLa cells were cultured as previously described. The cells were then seeded in 96-well plates as discussed above. After the 24-hour incubation period, the cells were treated by the following means. […] All possible pairings of each drug concentration were tested. […] All pairings were performed in triplicate and the control was performed in sextuplicate.
After 72 hours of incubation time, the […]-GLO® Luminescent Cell Viability Assay (Promega) was conducted as above. The combination effect of the drugs was analyzed using the CompuSyn program. The background (DMEM only) was subtracted as described previously and all experimental wells were normalized to the average of the controls (as above).

[4] = toxicity to humans; cited from earlier work
HEC/16E6E7 cells = assay: […]-GLO cell viability, drugs alone and in combination (Example 4); format: cell-based
Protocol: The cell lines were treated with artesunate, vorinostat, and panobinostat individually and in combination. The IC50 values were calculated from the cell viability assays for each drug alone and in combination. […] Cells were then incubated for a 24-hour period to allow them to adhere to the wells. […] For the experiments involving artesunate and panobinostat, the concentrations used varied by cell type. […] After an incubation time of 72 hours, the […]-GLO® Luminescent Cell Viability Assay (Promega) was conducted. The buffer/enzyme solution was mixed and applied to the cells according to the Promega protocol. Cells were then placed on the orbital shaker for 2 minutes and then placed in the luminometer for reading. To analyze the data, the background (from only the DMEM media) was subtracted from the luminescence of each well. […] All readings were normalized based upon the control values. […] Analyses were conducted using GraphPad Prism 9. The combination index and dose-reduction index values were calculated based using the summary of the data for all three cell types. […] Dose reduction values are the measure of how many folds the dose of each drug in a synergistic combination may be reduced compared with the doses of each drug alone. By reducing dose, toxicity is reduced without compromising effect. The values are shown in Table 4 for IC50 and in Table 5 for IC90. […] The methods of analysis are the same as those described above. […] A DMSO experimental stock was made in DMEM as a negative control. […] Analyses were conducted using GraphPad Prism 9. The combination index and dose-reduction index values were calculated based using the summary of the data for all three cell types. […] Dose reduction values are the measure of how many folds the dose of each drug in a synergistic combination may be reduced compared with the doses of each drug alone. By reducing dose, toxicity is reduced without compromising effect. The values are shown in Table 6 for IC50 and in Table 7 for IC90.

Caski cells = assay: […]-GLO cell viability, single drugs (Example 1); format: cell-based; conditions: Homo sapiens, Ca-Ski, 72 h, read-out: IC50 Confidence Interval
Text: (§2) To test the individual effects of artesunate and panobinostat, three cervical cancer cell model lines (Caski, SiHa, and HeLa cells) were obtained from the American Type Culture Collection (Manassas, Va.) and maintained in DMEM (Invitrogen) supplemented with 10% fetal bovine serum (Quality Biological, Inc., Gaitherburg, Md.) and penicillin/streptomycin (Invitrogen), in accordance with previous experiments. The cells were split every 3 to 5 days to prevent any of the lines from becoming fully confluent.
(§3) To prepare the cells for treatment, 6000 cells per well were seeded in 96-well plates (for each cell line). Cells were then incubated for a 24-hour period to allow them to adhere to the wells. The cells were then treated with various concentrations of artesunate or panobinostat. For artesunate, the concentrations used for treating each cell type were 80 μM, 40 μM, 20 μM, 10 μM, 5 μM, 2.5 μM, and 1.25 μM. […] Control wells consisted of DMEM, in which the DMSO concentration was the highest drug concentration (0.2% for artesunate, 0.064% for panobinostat) tested. Each concentration was performed in triplicate and the control was conducted in sextuplicate.
(§4) After an incubation time of 72 hours, the […]-GLO® Luminescent Cell Viability Assay (Promega) was conducted. The buffer/enzyme solution was mixed and applied to the cells according to the Promega protocol. Cells were then placed on the orbital shaker for 3 minutes, incubated for 30 minutes, and placed in the luminometer for reading.
(§5) To analyze the data, the background (from only the DMEM media) was subtracted from the luminescence of each well. The program GraphPad Prism 7 was then used to calculate the IC50 values and the cell viability curves for each drug and cell line. All readings were normalized based upon the control values.

HeLa cells [5] = assay: […]-GLO cell viability, single drugs (Example 1); format: cell-based; conditions: 72 h
Text: as §2, §3, §4, §5

SiHa cells [6] = assay: […]-GLO cell viability, single drugs (Example 1); format: cell-based; conditions: Homo sapiens, 72 h, read-out: IC50 Confidence Interval
Text: as §2, §3, §4, §5

[7] = test system: HPV 16- and HPV 18-positive cells; conditions: in vitro experiments [7]; cited from earlier work

## C[C@H]1[C@H](OC(=O)CCC(=O)O)O[C@@H]2O[C@@]3(C)CC[C@H]4[C@H](C)CC[C@@H]1[C@@]24OO3 [artesunate]
HPV precancers
  cure of HPV precancers: 70%
HeLa cells [1]; HeLa, 72 h, read-out: IC50 ART
  IC50: 3.7 µM
HeLa cells [1]; HeLa, 72 h, read-out: IC90 ART
  IC90: 14.3 µM
HeLa cells [1]; HeLa, read-out: IC50 ART
  IC50: 4.55 µM
HeLa cells [1]; HeLa, read-out: IC90 ART
  IC90: 15.5 µM
SiHa cells [2]; SiHa, 72 h, read-out: IC50 ART
  IC50: 4.83 µM
SiHa cells [2]; SiHa, 72 h, read-out: IC90 ART
  IC90: 30 µM
SiHa cells [2]; SiHa, read-out: IC50 ART
  IC50: 6.06 µM
SiHa cells [2]; SiHa, read-out: IC90 ART
  IC90: 34.5 µM
HeLa cells [3]; artesunate 1.25 uM alone
  Effect (fraction of HeLa cells still surviving): 0.7457
HeLa cells [3]; artesunate 2.5 uM alone
  Effect (fraction of HeLa cells still surviving): 0.6418
HeLa cells [3]; artesunate 5.0 uM alone
  Effect (fraction of HeLa cells still surviving): 0.5808
HeLa cells [3]; artesunate 10.0 uM alone
  Effect (fraction of HeLa cells still surviving): 0.4287
HeLa cells [3]; artesunate 20.0 uM alone
  Effect (fraction of HeLa cells still surviving): 0.3015
[4]
  safety relative to artemether: twice as safe as artemether
  toxicity relative to chloroquinine: one-fiftieth as toxic as chloroquinine
HEC/16E6E7 cells; 72 h, read-out: IC50 ART
  IC50: 4.93 µM
HEC/16E6E7 cells; 72 h, read-out: IC90 ART
  IC90: 77.6 µM
HEC/16E6E7 cells; read-out: IC50 ART
  IC50: 6.99 µM
HEC/16E6E7 cells; read-out: IC90 ART
  IC90: 158 µM
Caski cells
  IC50: 1.74 to 3.14 µM
HeLa cells [5]; Homo sapiens, drug alone
  IC50: ~5 µM
HeLa cells [5]; Homo sapiens, read-out: IC50 Confidence Interval, HeLa, 95% confidence interval
  IC50: 4.33 to 6.07 µM
HeLa cells [5]; drug alone
  IC50: 5.13 µM
SiHa cells [6]
  IC50: 6.8 to 9.43 µM
[7]
  killing of HPV-positive cells: selectively kill

## Cc1[nH]c2ccccc2c1CCNCc1ccc(/C=C/C(=O)NO)cc1 [panobinostat]
HeLa cells [1]; Hela, PAN alone, 72 h, read-out: IC50 PAN
  IC50: 14.7 µM
HeLa cells [1]; Hela, PAN alone, 72 h, read-out: IC90 PAN
  IC90: 60.5 µM
SiHa cells [2]; Siha, PAN alone, 72 h, read-out: IC50 PAN
  IC50: 17.8 µM
SiHa cells [2]; Siha, PAN alone, 72 h, read-out: IC90 PAN
  IC90: 67.6 µM
HeLa cells [3]; panobinostat 2.5 nM alone
  Effect (fraction of HeLa cells still surviving): 0.7864
HeLa cells [3]; panobinostat 5.0 nM alone
  Effect (fraction of HeLa cells still surviving): 0.7379
HeLa cells [3]; panobinostat 10.0 nM alone
  Effect (fraction of HeLa cells still surviving): 0.6177
HeLa cells [3]; panobinostat 20.0 nM alone
  Effect (fraction of HeLa cells still surviving): 0.4359
HeLa cells [3]; panobinostat 40.0 nM alone
  Effect (fraction of HeLa cells still surviving): 0.3322
HEC/16E6E7 cells; HEC/16E6E7, PAN alone, 72 h, read-out: IC50 PAN
  IC50: 25 µM
HEC/16E6E7 cells; HEC/16E6E7, PAN alone, 72 h, read-out: IC90 PAN
  IC90: 115 µM
Caski cells; Caski, 95% confidence interval
  IC50: 0.00655 to 0.0125 µM
HeLa cells [5]; Homo sapiens, 95% confidence interval, read-out: IC50 Confidence Interval
  IC50: 0.00771 to 0.0132 µM
HeLa cells [5]; Homo sapiens, drug alone, read-out: IC50
  IC50: ~0.01 µM
HeLa cells [5]; drug alone, read-out: IC50
  IC50: 0.0101 µM
SiHa cells [6]; 95% confidence interval
  IC50: 0.0199 to 0.0257 µM

## O=C(CCCCCCC(=O)Nc1ccccc1)NO [vorinostat]
HeLa cells [1]; Hela, SAHA alone, read-out: IC90 SAHA
  IC90: 6.5 µM
SiHa cells [2]; Siha, SAHA alone, read-out: IC90 SAHA
  IC90: 13.2 µM
HEC/16E6E7 cells; HEC/16E6E7, SAHA alone, read-out: IC50 SAHA
  IC50: 2.31 µM
HEC/16E6E7 cells; HEC/16E6E7, SAHA alone, read-out: IC90 SAHA
  IC90: 8.54 µM

Source: US20230233520A1, “COMBINATION THERAPY OF ARTEMISININ-RELATED COMPOUNDS AND HISTONE DEACETYLASE INHIBITORS FOR TREATMENT OF HPV-RELATED BENIGN, PREMALIGNANT, AND MALIGNANT DISEASES” (Georgetown University, priority 2020, published 2023)
